This is an account of results in patent US9751919B2, “Antimicrobial compositions comprising a hyaluronic acid binding peptide and a β-lactam antibiotic” (priority 2012, dated 2017).

What all share (experiment): Checkerboard assay (FIC index)
Assay [1] concerns E. coli. It counts as cell-based, Escherichia coli. The following applies: for synergy (in words): with β-lactams, against E. coli. On the procedure: Checkerboard assays were carried out as described by Bonapace et al.
Diagnostic Microbiology and Infectious Diseases 2002; 44:363-366. In brief, checkerboard assays were performed in 96 well microtitre trays using an 8-by-8 well configuration. […] 96-well custom designed microtitre plates contained 100 ul/well of cation adjusted Mueller-Hinton broth (eg. for Enterobacteriaceae) with or without lysed horse blood (2-5% V/V) [eg. for S. pneumoniae] and were inoculated to achieve a final concentration of approximately 5×10^5 CFU/ml and incubated in ambient air for 24 hours prior to reading. Colony counts were performed periodically to confirm inocula. Quality control was performed every two weeks using a variety of ATCC QC organisms including; S. pneumoniae 49619, S. aureus 29213, E. faecalis 29212, E. coli 25922 and P. aeruginosa 27853. […] All peptides were assessed for synergy with β-lactams and vancomycin. For all antimicrobials as well as the peptides, CLSI criteria were used.
(§1) The fractional inhibitory concentration index (FIC index) was used to interpret synergy, antagonism or additivity/indifference. FIC index=FIC of drug A+FIC of drug B where:
The FIC of drug A and drug B was calculated as follows, FIC drug A=MIC of drug A in combination/MIC of drug A alone and FIC of drug B=MIC of drug B in combination/MIC of drug B alone. Synergy was defined as FIC index ≦0.5, additivity/indifference defined as a FIC between 0.5 and 4 and antagonism defined as an FIC index >4.
(§2) The checkerboard assays were carried out as described by Eliopoulos and Moellering (Chapter 9) in Antibiotic in Laboratory Medicine, Lorian Ed. 1996 as well as Bonapace et al. Diagnostic Microbiology and Infectious Diseases 2002; 44:363-366 and Bonapace et al. Diagnostic Microbiology and Infectious Diseases 2000; 38:43-50. In brief, checkerboard assays were performed in 96 well microtitre trays using an 8-by-8 well configuration. […] 96-well custom designed microtitre plates contained 100 ul/well of cation adjusted Mueller-Hinton broth (eg. for Enterobacteriaceae) with or without lysed horse blood (2-5% V/V) [eg. for S. pneumoniae] and were inoculated to achieve a final concentration of approximately 5×10^5 CFU/ml and incubated in ambient air for 24 hours prior to reading. Colony counts were performed periodically to confirm inocula. Quality control was performed every two weeks using a variety of ATCC QC organisms including; S. pneumoniae 49619, S. aureus 29213, E. faecalis 29212, E. coli 25922 and P. aeruginosa 27853. For all antimicrobials as well as PEP35, CLSI criteria was used.
(§3) The FIC of drug A and drug B is calculated as follows, FIC drug A=MIC of drug A in combination/MIC of drug A alone and FIC of drug B=MIC of drug B in combination/MIC of drug B alone. Synergy is defined as FIC index ≦0.5, additivity/indifference FIC >0.5-4 and antagonism FIC index >4.
(§4) Antimicrobials used included PEP35, cefazolin, ceftriaxone, vancomycin, linezolid, tigecycline and daptomycin versus Gram-positive cocci and PEP35, gentamicin, levofloxacin, piperacillin/tazobactam, meropenem and colistin (Polymyxin E) versus Gram-negative bacilli. These agents were obtained as laboratory grade powders from their respective manufacturers. Stock solutions were prepared and dilutions made as described by the Clinical Laboratory Standards Institute (2005 CLSI).
Organisms included Gram-positive cocci (2 strains of each): Methicillin-susceptible Staphylococcus aureus (MSSA), community-associated (CA) and healthcare-associated (HA) methicillin-resistant Staphylococcus aureus (MRSA), vancomycin-intermediate Staphylococcus aureus (VISA), vancomycin-resistant Staphylococcus aureus (VRSA), methicillin-resistant Staphylococcus epidermidis (MRSE), Streptococcus pyogenes, Streptococcus agalactiae, Streptococcus pneumoniae, Enterococcus faecalis, Enterococcus faecium and vancomycin-resistant enterococcus (VRE). […]

Assay [2] deals with S. pyogenes. Type of assay: cell-based, Streptococcus pyogenes. The following applies: antibiotic combined with PEP35. The protocol: as §2, §1, §3, §4
(§5) Organisms included Gram-positive cocci (2 strains of each): Methicillin-susceptible Staphylococcus aureus (MSSA), community-associated (CA) and healthcare-associated (HA) methicillin-resistant Staphylococcus aureus (MRSA), vancomycin-intermediate Staphylococcus aureus (VISA), vancomycin-resistant Staphylococcus aureus (VRSA), methicillin-resistant Staphylococcus epidermidis (MRSE), Streptococcus pyogenes, Streptococcus agalactiae, Streptococcus pneumoniae, Enterococcus faecalis, Enterococcus faecium and vancomycin-resistant enterococcus (VRE). Gram-negative bacilli tested (2 strains of each) included: E. coli, Pseudomonas aeruginosa, Klebsiella pneumoniae, K. oxytoca, Enterobacter cloacae, P. mirabilis and Stenotrophomonas maltophilia. MIC testing, following two subcultures from frozen stock were determined by the CLSI 2005 approved broth microdilution method.

The test system of assay [3] is E. faecalis. It counts as cell-based, Enterococcus faecalis. The following applies: antibiotic combined with PEP35. On the procedure:
as §2, §1, §3, §4, §5

For assay [4], the system named is E. Faecium. It counts as cell-based, Enterococcus faecium. The following applies: antibiotic combined with PEP35. On the procedure: as §2, §1, §3, §4, §5
Assay [5] deals with VRE. Type of assay: cell-based, Enterococcus faecium. The note with it: antibiotic combined with PEP35. The protocol:
as §2, §1, §3, §4, §5

[6] abbreviates: antibiotic combined with PEP35, E. coli 69716.
[7] abbreviates: β-lactam combined with HybPEP35-1, E. coli 69716.
Where [8] appears, read: β-lactam combined with PEP-52, E. coli 69716.
Setting [9] is: β-lactam combined with Scrambled PEP35, E. coli 69716.
Setting [10] is: antibiotic combined with PEP35, E. coli 70752.

Values joined by “and” are separate entries in the source; they are usually repeats but may differ in a detail not shown here. Equal entries are not always repeated. Marks after values point to notes of the source that are not given here.

As for “LKQKIKHVVKLKVVVKLRSQLVKRKQN (listed as Mus sp.) [PEP35]”, the “synergy (in words)” value in assay [1] is “not synergistic”.
Still for that read-out and setting: with “KKKKKLQLQLNLIKKKVQVSVVVVRRH (Reordered human peptide sequence) [Scrambled PEP35]” the entry was “not synergistic (except at low level with ceftriaxone)”.
On to `CC(=O)NC[C@H]1CN(c2ccc(N3CCOCC3)c(F)c2)C(=O)O1` [Linezolid, linezolid], for which the “Avg ΣFIC (range)” value in assay [2] (S. pyogenes 77765 (MHB)) is reported as 1.05 (0.75-1.25); in assay [2] (S. pyogenes 79531 (MHB)), 1.19 (1.03-1.5); in assay [3] (E. faecalis 70468), 0.99 (0.62-1.25); in assay [3] (E. faecalis 78145), 0.88 (0.62-1.06); in assay [4] (E. Faecium 78024), 1.1 (1-1.25); in assay [4] (E. Faecium 78352) it was 0.80 (0.5-1.06). The “Avg ΣFIC (range)” value was 1.09 (1-1.25) in assay [5] (VRE 70769) and 1.19 (1.03-1.5) in assay [5] (VRE 77872).
In the case of `CO/N=C(\C(=O)N[C@@H]1C(=O)N2C(C(=O)O)=C(CSc3nc(=O)c(=O)[nH]n3C)CS[C@H]12)c1csc(N)n1` [Ceftriaxone], the “Avg ΣFIC (range)” value was 1.04 in assay [1] (setting [6]); 0.41 in assay [1] (setting [7]); >1* in assay [1] (setting [8]); 0.41 in assay [1] (setting [9]); 1.19 (0.03-1.5) in assay [2] (S. pyogenes 77765 (MHB)); 1.19 (1.03-1.5) in assay [2] (S. pyogenes 79531 (MHB)). For the same compound, the “Avg ΣFIC (range)” value in assay [3] (E. faecalis 70468) is 1.1 (1-1.25); in assay [3] (E. faecalis 78145) it was 0.72 (0.53-1.12); in assay [4] (E. Faecium 78024), >1*; in assay [4] (E. Faecium 78352), 0.99 (0.62-1.25); in assay [5] (VRE 70769) it was >1*; in assay [5] (VRE 77872) it was >1*.
piperacillin/tazobactam: the “Avg ΣFIC (range)” value was 0.87 (0.56-1.12) and 0.63 (0.5-1.03) in assay [1] (setting [6]); 0.98 (0.62-1.25) and 0.63 (0.24-1.03) in assay [1] (setting [10]); 0.59 in assay [1] (setting [7]); 0.67 in assay [1] (β-lactam combined with HybPEP35-1, E. coli 70752); >1* in assay [1] (setting [8]); >1* in assay [1] (β-lactam combined with PEP-52, E. coli 70752). Moreover, the “Avg ΣFIC (range)” value was 0.59 in assay [1] (setting [9]) and 0.67 in assay [1] (β-lactam combined with Scrambled PEP35, E. coli 70752).
For `CCCCCCCCCC(=O)N[C@@H](Cc1c[nH]c2ccccc12)C(=O)N[C@H](CC(N)=O)C(=O)N[C@@H](CC(=O)O)C(=O)N[C@@H]1C(=O)NCC(=O)N[C@@H](CCCN)C(=O)N[C@@H](CC(=O)O)C(=O)N[C@H](C)C(=O)N[C@@H](CC(=O)O)C(=O)NCC(=O)N[C@H](CO)C(=O)N[C@@H]([C@H](C)CC(=O)O)C(=O)N[C@@H](CC(=O)c2ccccc2N)C(=O)O[C@@H]1C` [Daptomycin, daptomycin], the “Avg ΣFIC (range)” value in assay [2] (S. pyogenes 77765 (MHB)) is recorded as 1.19 (1.03-1.5); in assay [2] (S. pyogenes 79531 (MHB)) it was 1.19 (1.03-1.5); in assay [3] (E. faecalis 70468), 1.5 (1-2.25); in assay [3] (E. faecalis 78145), 1.39 (1.03-2.25); in assay [4] (E. Faecium 78024), 1.19 (1.03-1.5); in assay [4] (E. Faecium 78352) it was 1.10 (0.75-1.5). Moreover, the “Avg ΣFIC (range)” value in assay [5] (VRE 70769) is on record as 0.82 (0.28-1.25); in assay [5] (VRE 77872) it was 1.34 (1.03-1.5).
On to `Cc1nnc(SCC2=C(C(=O)O)N3C(=O)[C@@H](NC(=O)Cn4cnnn4)[C@H]3SC2)s1` [Cefazolin], for which the “Avg ΣFIC (range)” value in assay [1] (setting [6]) is 1.1; in assay [1] (setting [7]) it was 1.1; in assay [1] (setting [8]) it was >1*; in assay [1] (setting [9]), 1.1; in assay [2] (S. pyogenes 77765 (MHB)) it was 1.04 (0.75-1.25); in assay [2] (S. pyogenes 79531 (MHB)), 1.19 (1.03-1.5). Also, the “Avg ΣFIC (range)” value was 0.94 (0.56-1.25) in assay [3] (E. faecalis 70468); 0.93 (0.62-1.06) in assay [3] (E. faecalis 78145); 1.16 (1.015-1.5) in assay [4] (E. Faecium 78024); 1.10 (1-1.25) in assay [4] (E. Faecium 78352); >1* in assay [5] (VRE 70769); >1* in assay [5] (VRE 77872).
`C[C@@H](O)[C@H]1C(=O)N2C(C(=O)O)=C(S[C@@H]3CN[C@H](C(=O)N(C)C)C3)[C@H](C)[C@H]12` [Meropenem]: the “Avg ΣFIC (range)” value is given as 1.21 (1.03-1.5) in assay [1] (setting [10]), 1.21 in assay [1] (setting [7]), >1* in assay [1] (setting [8]) and 1.21 in assay [1] (setting [9]).
In the case of `CN[C@H](CC(C)C)C(=O)N[C@H]1C(=O)N[C@@H](CC(N)=O)C(=O)N[C@H]2C(=O)N[C@H]3C(=O)N[C@H](C(=O)N[C@H](C(=O)O)c4cc(O)cc(O)c4-c4cc3ccc4O)[C@H](O)c3ccc(c(Cl)c3)Oc3cc2cc(c3O[C@@H]2O[C@H](CO)[C@@H](O)[C@H](O)[C@H]2O[C@H]2C[C@](C)(N)[C@H](O)[C@H](C)O2)Oc2ccc(cc2Cl)[C@H]1O` [Vancomycin], the “Avg ΣFIC (range)” value in assay [2] (S. pyogenes 77765 (MHB)) was 1.09 (1.0-1.25); in assay [2] (S. pyogenes 79531 (MHB)), 1.27 (1.015-2.5); in assay [3] (E. faecalis 70468) it was 1.1 (1-1.25); in assay [3] (E. faecalis 78145), 1.19 (1.03-15); in assay [4] (E. Faecium 78024), 1.19 (1.03-1.5); in assay [4] (E. Faecium 78352), 1.59 (1.06-2.5). Also, the “Avg ΣFIC (range)” value in assay [5] (VRE 70769) is recorded as 0.92 (0.506-1.25); in assay [5] (VRE 77872), 1.19 (1.03-1.5).
Regarding `CN(C)c1cc(NC(=O)CNC(C)(C)C)c(O)c2c1C[C@H]1C[C@H]3[C@H](N(C)C)C(O)=C(C(N)=O)C(=O)[C@@]3(O)C(O)=C1C2=O` [Tigecycline, tigecycline], the “Avg ΣFIC (range)” value is 1.1 (1.0-1.25) in assay [2] (S. pyogenes 77765 (MHB)); 1.1 (1.0-1.25) in assay [2] (S. pyogenes 79531 (MHB)); 0.82 (0.5-1.06) in assay [3] (E. faecalis 70468); 0.9 (0.5-1.12) in assay [3] (E. faecalis 78145); 1.19 (1.03-1.5) in assay [4] (E. Faecium 78024); 0.99 (0.75-1.12) in assay [4] (E. Faecium 78352). The “Avg ΣFIC (range)” value in assay [5] (VRE 70769) was 1.2 (1.03-1.05); in assay [5] (VRE 77872), 1.39 (1.03-2.06).
